Experimental findings from patent publication US9499495B2, “Quinazolines and azaquinazolines as dual inhibitors of RAS/RAF/MEK/ERK and PI3K/AKT/PTEN/mTOR pathways” (Asana Biosciences, LLC, priority 2013, dated 2016) are described below.

Each structure is given as a SMILES string.

One experiment concerns A375 cells. The experiment is described as follows: XTT assay for cell viability, A375 cells. It counts as cell-based. Conditions: Homo sapiens, A-375, 72 h. In outline:
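GI50 derived by sigmoidal dose-response fitting of proliferation normalised to DMSO control (100%). Readout: A450 after 2-3 h with XTT (1 mg/ml)/PMS (25 μM), following 72 h compound treatment at 37° C., 5% CO2 of cells plated at 1000-2000 per well the previous day.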

The test system of another experiment is pERK in A375 cells. The experiment is described as follows: In Cell Western (ICW) assay, pERK in A375 cells. It is filed as cell-based. Conditions: Homo sapiens, A-375, 3 h treatment. The gist of the method:
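After a 3 h compound treatment at 37 °C, fixed RKO or A375 cells were probed for phospho-ERK1/2 (T202/Y204), phospho-S6RP or phospho-AKT T308 and detected with a Eu-tagged anti-rabbit antibody (ex 340/em 615 nm), with Hoechst signal as the cell-number correction. Inhibition was referenced to DMSO, and IC50 values came from sigmoidal dose-response curves.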

Another experiment deals with pS6RP in RKO cells. Description: In Cell Western (ICW) assay, pS6RP in RKO cells. It is filed as cell-based. Conditions: Homo sapiens, 3 h treatment. Here is the method: (§1) Cell lines A375, A2058 and RKO obtained from the ATCC as provided above, were grown, and after attaining ˜80% confluency were trypsinized, centrifuged and resuspended in fresh media. The cells were seeded at the specified density (20,000 to 50,000) in a 96-well format black-well clear bottom plate (Corning) and incubated overnight at 37° C. in a 5% CO2 incubator. The next day, compound dilutions of test compounds were prepared in 100% DMSO followed by dilutions in respective media. Treatment of test compounds was performed for 3 h at 37° C. in 5% CO2 incubator. Following 3 h drug treatment, the conditional media was discarded and the cells were washed once with cPBS (PBS containing 0.1% magnesium chloride hexahydrate and 0.1% anhydrous calcium chloride) and fixed with 4% paraformaldehyde in cPBS for 1 h at rt. After fixing, the cells were given three washes using cPBST (cPBS containing 0.1% Triton™ X-100 reagent) and then blocked using blocking solution (5% skimmed milk powder or 5% BSA prepared in cPBST) for 2 h at rt with shaking at 300 rpm. The cells were again washed thrice with cPBST and incubated with primary antibody phospho-p44/42 MAPK(Erk1/2)(Thr202/204) antibody (Cell Signaling, Catalog # 9101L), phospho S6 ribosomal protein (Cell Signaling, Catalog #4858L), phospho AKT (Thr 308) (Cell Signaling, Catalog #9275) or phospho AKT (Ser 473) (Cell Signaling, Catalog #4060L) in specified dilutions (1:500-1:2500), prepared in respective blocking solutions, in a racker overnight at 4° C. The next day, the cells were washed with 1× Delfia® wash buffer (4×1 wash) and incubated with secondary antibody (Delfia®-Eu-N1 labeled anti-rabbit antibody; PerkinElmer, Catalog #AD0105; dilutions: 1:2000 to 1:6000 in Delfia® assay buffer (PerkinElmer, Catalog #1244-111)) for 2 h at rt in the dark at 300 rpm. The cells were then given four washes with 1× Delfia® wash buffer and incubated with Wallac Delfia® Enhancement solution (100 μL; PerkinElmer, Catalog #1244-105) for 20 min at rt in the dark at 300 rpm. The fluorescence emission was then read at 615 nm with an excitation wavelength of 340 nm using a Victor V5 Fluorometer (Perkin Elmer, US). The cells were then washed once with 1×cPBS and incubated with 100 μL of 0.5 mg/mL of Hoechst 33258 dye prepared in cPBS and read at 460 nm with 355 nm excitation, thereby evaluating the correction factor.
(§2) The % inhibition for the test compounds of formula (I) (new chemical entities (NCEs)) was calculated keeping DMSO control as 0% and the IC50 values were determined using sigmoidal dose response curve fit in GraphPad Prism® v5 software.

In the next experiment the target is T1, B-RAFV600E (Homo sapiens, UniProt P15056, V600E).
T1 construct: purchased Millipore, USA 14-557
T1 sequence (P15056 416-766 V600E limits assumed): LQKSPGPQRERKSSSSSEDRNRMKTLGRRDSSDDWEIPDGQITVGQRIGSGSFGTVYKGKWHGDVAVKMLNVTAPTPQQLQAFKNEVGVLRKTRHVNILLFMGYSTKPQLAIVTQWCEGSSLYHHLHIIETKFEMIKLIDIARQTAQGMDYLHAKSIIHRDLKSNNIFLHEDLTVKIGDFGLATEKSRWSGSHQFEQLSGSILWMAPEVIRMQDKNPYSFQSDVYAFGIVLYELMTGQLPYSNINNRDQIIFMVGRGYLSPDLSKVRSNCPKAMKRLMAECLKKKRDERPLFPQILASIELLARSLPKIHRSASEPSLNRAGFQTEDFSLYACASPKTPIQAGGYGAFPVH
Description: B-RAFV600E radiometric assay. It counts as biochemical. Conditions: read-out: Kinase assay B-Raf. The gist of the method: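 B-RAFV600E was preincubated 45 min at rt with compound in 1% DMSO. MEK-K97M (0.5 μg), 5 μM final cold ATP and [γ-32P]ATP were then added for 2 h at rt. Phosphorylated MEK was captured on P81 paper and scintillation-counted; IC50 came from a sigmoidal dose-response fit.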

For a further experiment, the system named is RKO cells. The experiment is described as follows: XTT assay for cell viability, RKO cells. It counts as cell-based. To be noted: Homo sapiens, 72 h. Here is the method: Cell lines (A375 ATCC No. CRL-1619, A2058 ATCC No. CRL-11147 and RKO ATCC No. CRL-2577, American Type Culture Collection (ATCC), Manassas Va.) once attaining ˜80% confluency were trypsinized, centrifuged and resuspended in fresh media. Cells (1000-2000/per well) were seeded in 96-well plate and incubated over-night at 37° C. in a 5% CO2 incubator. Compound dilutions were prepared in 100% DMSO followed by dilutions in the respective media. The cells were treated with NCEs for 72 h at 37° C. in 5% CO2 incubator. After 72 h, freshly prepared XTT (1 mg/ml)/PMS (25 μM) solution was added, incubated for 2 to 3 h at 37° C. and the absorbance was measured at 450 nm using an ELISA plate reader. Keeping DMSO control as 100%, the effect of the compound to inhibit the cell proliferation was calculated and the GI50 values were determined using sigmoidal dose response curve fit in GraphPad Prism® v5 software.
A general note: Tetrazolium dyes change colour on reduction, which living cells bring about.

Another experiment deals with T2, mTOR kinase (Homo sapiens, UniProt P42345).
T2 construct: purchased Millipore, US
T2 sequence (P42345 1362-2549 limits assumed): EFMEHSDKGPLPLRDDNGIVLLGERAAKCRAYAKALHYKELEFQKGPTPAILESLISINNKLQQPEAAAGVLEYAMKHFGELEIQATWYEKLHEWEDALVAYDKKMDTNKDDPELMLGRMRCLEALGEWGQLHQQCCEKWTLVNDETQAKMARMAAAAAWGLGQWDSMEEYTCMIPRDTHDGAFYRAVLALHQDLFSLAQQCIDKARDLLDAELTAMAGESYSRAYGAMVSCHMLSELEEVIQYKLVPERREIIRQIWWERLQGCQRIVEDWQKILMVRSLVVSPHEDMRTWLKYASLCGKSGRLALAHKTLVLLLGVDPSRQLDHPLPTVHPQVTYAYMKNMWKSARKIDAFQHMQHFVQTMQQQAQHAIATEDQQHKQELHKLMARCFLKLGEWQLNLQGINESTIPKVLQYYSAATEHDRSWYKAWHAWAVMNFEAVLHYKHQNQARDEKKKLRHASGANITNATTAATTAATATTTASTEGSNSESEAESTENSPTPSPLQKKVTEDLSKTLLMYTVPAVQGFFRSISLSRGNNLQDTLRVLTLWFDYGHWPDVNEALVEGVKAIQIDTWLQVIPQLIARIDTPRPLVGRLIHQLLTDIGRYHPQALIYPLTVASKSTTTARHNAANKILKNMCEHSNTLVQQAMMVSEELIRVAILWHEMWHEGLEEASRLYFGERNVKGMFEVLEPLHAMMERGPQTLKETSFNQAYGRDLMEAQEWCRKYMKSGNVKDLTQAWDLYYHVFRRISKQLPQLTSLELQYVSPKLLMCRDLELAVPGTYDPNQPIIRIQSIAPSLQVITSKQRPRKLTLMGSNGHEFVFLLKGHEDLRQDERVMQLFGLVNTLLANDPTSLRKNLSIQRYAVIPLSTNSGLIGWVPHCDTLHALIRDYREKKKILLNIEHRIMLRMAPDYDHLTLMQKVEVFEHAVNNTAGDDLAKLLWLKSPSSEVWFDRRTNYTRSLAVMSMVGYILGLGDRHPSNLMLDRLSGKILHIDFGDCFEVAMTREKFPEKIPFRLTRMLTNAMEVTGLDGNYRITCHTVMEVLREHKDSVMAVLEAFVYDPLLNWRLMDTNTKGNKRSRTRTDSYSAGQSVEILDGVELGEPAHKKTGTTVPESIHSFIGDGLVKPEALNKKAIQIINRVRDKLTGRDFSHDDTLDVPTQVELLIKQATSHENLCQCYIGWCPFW
Description: mTOR kinase TR-FRET assay. It counts as biochemical. In outline: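 TR-FRET with ULight-p70 S6K (Thr 389) peptide (50 nM) and 20 μM ATP in 50 mM HEPES pH 7.5, 1 mM EGTA, 3 mM MnCl2; compound pre-incubated with enzyme before substrate addition, reaction at rt, EDTA-stopped. Eu anti-phospho antibody read 665/615 nm; IC50 from sigmoidal dose-response fit.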
(In general: In TR-FRET formats the signal depends on donor and acceptor labels being close together.)

A further experiment relates to pERK in RKO cells. Description: In Cell Western (ICW) assay, pERK in RKO cells. It is filed as cell-based. Conditions: Homo sapiens, 3 h treatment. The procedure: as §1, §2

For `CCOc1cc(-c2cccc(NS(=O)(=O)CCCF)c2F)cc2c(N3CCOCC3)nc(-c3ccc(N)nc3)nc12` [Example 52, N-(3-(2-(6-aminopyridin-3-yl)-8-ethoxy-4-morpholinoquinazolin-6-yl)-2-fluorophenyl)-3-fluoropropane-1-sulfonamide], the IC50 was in the range of 1 to 100 nM in the experiment with A375 cells; 1 to 100 nM in the experiment with pERK in A375 cells; 100 to 1000 nM in the experiment on pS6RP in RKO cells; 1 to 100 nM on B-RAFV600E; 100 to 1000 nM in the experiment on RKO cells; 100 to 1000 nM against mTOR kinase. The IC50 in the experiment with pERK in RKO cells was in the range of 1 to 100 nM.
As for `CC(C)Oc1cc(-c2cccc(NS(=O)(=O)CCCF)c2F)cc2c(N3CCOCC3)nc(-c3ccc(N)nc3)nc12` [Example 55, N-(3-(2-(6-aminopyridin-3-yl)-8-isopropoxy-4-morpholinoquinazolin-6-yl)-2-fluorophenyl)-3-fluoropropane-1-sulfonamide], the IC50 in the experiment on A375 cells fell in the range of 1 to 100 nM; in the experiment on pERK in A375 cells it was 1 to 100 nM; in the experiment on pS6RP in RKO cells it was 100 to 1000 nM; on B-RAFV600E, 1 to 100 nM; with RKO cells it was 100 to 1000 nM; at mTOR kinase, 100 to 1000 nM. In the experiment with pERK in RKO cells, the IC50 is 1 to 100 nM.
`CC(C)Oc1cc(-c2cccc(NS(=O)(=O)CCCF)c2F)cc2c(N3CCOC[C@H]3C)nc(-c3ccc(N)nc3)nc12` [Example 63, (R)-N-(3-(2-(6-aminopyridin-3-yl)-8-isopropoxy-4-(3-methylmorpholino)quinazolin-6-yl)-2-fluorophenyl)-3-fluoropropane-1-sulfonamide]: the IC50 with A375 cells was 1 to 100 nM; in the experiment on pERK in A375 cells it was 1 to 100 nM; in the experiment on pS6RP in RKO cells, 100 to 1000 nM; on B-RAFV600E, 1 to 100 nM; in the experiment on RKO cells, 100 to 1000 nM; against mTOR kinase, 1 to 100 nM. In the experiment with pERK in RKO cells, the IC50 was 1 to 100 nM.
As for `Nc1ccc(-c2nc(N3CCOCC3)c3cc(-c4cccc(NS(=O)(=O)CCCF)c4F)cc(N4CCOCC4)c3n2)cn1` [Example 5, N-(3-(2-(6-aminopyridin-3-yl)-4,8-dimorpholinoquinazolin-6-yl)-2-fluorophenyl)-3-fluoropropane-1-sulfonamide], the IC50 is 1 to 100 nM in the experiment with A375 cells; 1 to 100 nM with pERK in A375 cells; 1 to 100 nM in the experiment with pS6RP in RKO cells; 1 to 100 nM on B-RAFV600E; 100 to 1000 nM in the experiment on RKO cells; 1 to 100 nM on mTOR kinase. Besides, the IC50 with pERK in RKO cells lay in the range of 1 to 100 nM.
`C[C@@H]1COCCN1c1nc(-c2cnc(N)nc2)nc2c(N3CCOCC3)cc(-c3cccc(NS(=O)(=O)CCCF)c3F)cc12` [Example 73, (R)-N-(3-(2-(2-aminopyrimidin-5-yl)-4-(3-methylmorpholino)-8-morpholinoqulnazolin-6-yl)-2-fluorophenyl)-3-fluoropropane-1-sulfonamide]: the IC50 was 1 to 100 nM with A375 cells; 1 to 100 nM with pERK in A375 cells; 100 to 1000 nM with pS6RP in RKO cells; 1 to 100 nM on B-RAFV600E; 100 to 1000 nM in the experiment with RKO cells; 1 to 100 nM against mTOR kinase. In the experiment with pERK in RKO cells, this compound came in with an IC50 of 1 to 100 nM.
On to `COc1cc(-c2cccc(NS(=O)(=O)CCCF)c2F)cc2c(N3CCOC[C@H]3C)nc(-c3ccc(N)nc3)nc12` [Example 42, (R)-N-(3-(2-(6-aminopyridin-3-yl)-8-methoxy-4-(3-methylmorpholino)quinazolin-6-yl)-2-fluorophenyl)-3-fluoropropane-1-sulfonamide], for which the IC50 in the experiment on A375 cells lay within 1 to 100 nM; with pERK in A375 cells, 1 to 100 nM; with pS6RP in RKO cells, 100 to 1000 nM; on B-RAFV600E, 1 to 100 nM; in the experiment with RKO cells it was 100 to 1000 nM; against mTOR kinase, 1 to 100 nM. The compound also yielded an IC50 in the experiment with pERK in RKO cells of 1 to 100 nM.
